Test results taken from the supplement of paper PMC10307832.

Key:
Experiment in all cases: relative viability (nuclei count vs DMSO), 5 days (fraction); higher = more cells survive
[1] = compound: CN(C)CC1=CC(=CC=C1)N=C(C2=CC=CC=C2)C3=C(NC4=C3C=CC(=C4)C(=O)N(C)C)O + Cc1nc(Nc2ncc(C(=O)Nc3c(C)cccc3Cl)s2)cc(N2CCN(CCO)CC2)n1 [Dasatinib] (partner 0.075 µM)
How it was run: (§1)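 Lung cancer cell lines were pin-tool dosed in 1536-well plates on the day after seeding, with either a lone drug or a fixed anchor-drug dose plus five library-drug doses (not always all listed) in √10 steps. Nuclei were counted on 4× images after 5 days. Relative viability is the ratio of treated-well to vehicle-well nuclei counts, with each value a median of duplicate plates.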

[2] = compound: CN(C)CC1=CC(=CC=C1)N=C(C2=CC=CC=C2)C3=C(NC4=C3C=CC(=C4)C(=O)N(C)C)O + Nc1nc2[nH]cc(CCc3ccc(C(=O)N[C@@H](CCC(=O)O)C(=O)O)cc3)c2c(=O)[nH]1 [Pemetrexed] (partner 0.2 µM)
How it was run: as §1

[3] = compound: CN(C)CC1=CC(=CC=C1)N=C(C2=CC=CC=C2)C3=C(NC4=C3C=CC(=C4)C(=O)N(C)C)O + C[C@@H](Oc1cc(-c2cnn(C3CCNCC3)c2)cnc1N)c1c(Cl)ccc(F)c1Cl [Crizotinib] (partner 1 µM)
How it was run: as §1

[4] = compound: CN(C)CC1=CC(=CC=C1)N=C(C2=CC=CC=C2)C3=C(NC4=C3C=CC(=C4)C(=O)N(C)C)O + CS(=O)(=O)CCNCc1ccc(-c2ccc3ncnc(Nc4ccc(OCc5cccc(F)c5)c(Cl)c4)c3c2)o1 [Lapatinib] (partner 2 µM)
How it was run: as §1

With NCI-H322M the relative viability ([1]; first compound 0.08 µM) was 0.253, the relative viability ([1]; first compound 0.253 µM) was 0.266 and the relative viability ([1]; first compound 0.8 µM) was 0.251. The relative viability ([1]; first compound 2.53 µM) was 0.247, the relative viability ([1]; first compound 8 µM) was 0.252 and the relative viability ([2]; first compound 0.08 µM) was 0.556. It also gave a relative viability ([2]; first compound 0.253 µM) of 0.6, a relative viability ([2]; first compound 0.8 µM) of 0.612 and a relative viability ([2]; first compound 2.53 µM) of 0.565. The relative viability ([2]; first compound 8 µM) was 0.527, the relative viability ([3]; first compound 0.08 µM) was 0.931 and the relative viability ([3]; first compound 0.253 µM) was 0.899. For the same cell line, the relative viability ([3]; first compound 0.8 µM) was 0.928, the relative viability ([3]; first compound 2.53 µM) was 0.887 and the relative viability ([3]; first compound 8 µM) was 0.853. For the same cell line, the relative viability ([4]; first compound 0.08 µM) was 0.612, the relative viability ([4]; first compound 0.253 µM) was 0.599 and the relative viability ([4]; first compound 0.8 µM) was 0.54. The relative viability ([4]; first compound 2.53 µM) was 0.564 and the relative viability ([4]; first compound 8 µM) was 0.575.
For NCI-H1355, the relative viability ([1]; first compound 0.08 µM) was 0.776, the relative viability ([1]; first compound 0.253 µM) was 0.776 and the relative viability ([1]; first compound 0.8 µM) was 0.538. It also gave a relative viability ([1]; first compound 2.53 µM) of 0.82, a relative viability ([1]; first compound 8 µM) of 0.737 and a relative viability ([2]; first compound 0.08 µM) of 1.03. The relative viability ([2]; first compound 0.253 µM) was 0.991, the relative viability ([2]; first compound 0.8 µM) was 0.926 and the relative viability ([2]; first compound 2.53 µM) was 0.949. For the same cell line, the relative viability ([2]; first compound 8 µM) was 1.02, the relative viability ([3]; first compound 0.08 µM) was 1.1 and the relative viability ([3]; first compound 0.253 µM) was 1.05. It also gave a relative viability ([3]; first compound 0.8 µM) of 1.06, a relative viability ([3]; first compound 2.53 µM) of 1.03 and a relative viability ([3]; first compound 8 µM) of 1.06. For the same cell line, the relative viability ([4]; first compound 0.08 µM) was 1.08, the relative viability ([4]; first compound 0.253 µM) was 1.02 and the relative viability ([4]; first compound 0.8 µM) was 0.955. For the same cell line, the relative viability ([4]; first compound 2.53 µM) was 0.948 and the relative viability ([4]; first compound 8 µM) was 0.885.
COR-L 105 gave a relative viability ([1]; first compound 0.08 µM) of 0.394, a relative viability ([1]; first compound 0.253 µM) of 0.369 and a relative viability ([1]; first compound 0.8 µM) of 0.307. The relative viability ([1]; first compound 2.53 µM) was 0.314, the relative viability ([1]; first compound 8 µM) was 0.328 and the relative viability ([2]; first compound 0.08 µM) was 1.21. For the same cell line, the relative viability ([2]; first compound 0.253 µM) was 1.01, the relative viability ([2]; first compound 0.8 µM) was 0.895 and the relative viability ([2]; first compound 2.53 µM) was 0.892. The relative viability ([2]; first compound 8 µM) was 0.939, the relative viability ([3]; first compound 0.08 µM) was 0.857 and the relative viability ([3]; first compound 0.253 µM) was 0.892. It also gave a relative viability ([3]; first compound 0.8 µM) of 0.882, a relative viability ([3]; first compound 2.53 µM) of 0.644 and a relative viability ([3]; first compound 8 µM) of 0.625. For the same cell line, the relative viability ([4]; first compound 0.08 µM) was 0.384, the relative viability ([4]; first compound 0.253 µM) was 0.406 and the relative viability ([4]; first compound 0.8 µM) was 0.318. For the same cell line, the relative viability ([4]; first compound 2.53 µM) was 0.357 and the relative viability ([4]; first compound 8 µM) was 0.349.
With NCI-H1915 the relative viability ([1]; first compound 0.08 µM) was 0.365, the relative viability ([1]; first compound 0.253 µM) was 0.369 and the relative viability ([1]; first compound 0.8 µM) was 0.318. The relative viability ([1]; first compound 2.53 µM) was 0.323, the relative viability ([1]; first compound 8 µM) was 0.292 and the relative viability ([2]; first compound 0.08 µM) was 0.51. It also gave a relative viability ([2]; first compound 0.253 µM) of 0.446, a relative viability ([2]; first compound 0.8 µM) of 0.629 and a relative viability ([2]; first compound 2.53 µM) of 0.513. It also gave a relative viability ([2]; first compound 8 µM) of 0.417, a relative viability ([3]; first compound 0.08 µM) of 0.886 and a relative viability ([3]; first compound 0.253 µM) of 0.885. It also gave a relative viability ([3]; first compound 0.8 µM) of 0.989, a relative viability ([3]; first compound 2.53 µM) of 0.832 and a relative viability ([3]; first compound 8 µM) of 0.848. For the same cell line, the relative viability ([4]; first compound 0.08 µM) was 0.957, the relative viability ([4]; first compound 0.253 µM) was 0.955 and the relative viability ([4]; first compound 0.8 µM) was 1.05. It also gave a relative viability ([4]; first compound 2.53 µM) of 0.971 and a relative viability ([4]; first compound 8 µM) of 0.956.
For NCI-H1650, the relative viability ([1]; first compound 0.08 µM) was 0.286, the relative viability ([1]; first compound 0.253 µM) was 0.383 and the relative viability ([1]; first compound 0.8 µM) was 0.351. The relative viability ([1]; first compound 2.53 µM) was 0.376, the relative viability ([1]; first compound 8 µM) was 0.335 and the relative viability ([2]; first compound 0.08 µM) was 0.34. The relative viability ([2]; first compound 0.253 µM) was 0.353, the relative viability ([2]; first compound 0.8 µM) was 0.344 and the relative viability ([2]; first compound 2.53 µM) was 0.373. It also gave a relative viability ([2]; first compound 8 µM) of 0.39, a relative viability ([3]; first compound 0.08 µM) of 1.14 and a relative viability ([3]; first compound 0.253 µM) of 0.956. The relative viability ([3]; first compound 0.8 µM) was 1.03, the relative viability ([3]; first compound 2.53 µM) was 0.977 and the relative viability ([3]; first compound 8 µM) was 0.749. It also gave a relative viability ([4]; first compound 0.08 µM) of 0.688, a relative viability ([4]; first compound 0.253 µM) of 0.828 and a relative viability ([4]; first compound 0.8 µM) of 0.86. For the same cell line, the relative viability ([4]; first compound 2.53 µM) was 0.736 and the relative viability ([4]; first compound 8 µM) was 0.647.
In the case of NCI-H2126, the relative viability ([1]; first compound 0.08 µM) is reported as 0.717, the relative viability ([1]; first compound 0.253 µM) is reported as 0.676 and the relative viability ([1]; first compound 0.8 µM) is reported as 0.631. The relative viability ([1]; first compound 2.53 µM) was 0.607, the relative viability ([1]; first compound 8 µM) was 0.635 and the relative viability ([2]; first compound 0.08 µM) was 0.677. It also gave a relative viability ([2]; first compound 0.253 µM) of 0.706, a relative viability ([2]; first compound 0.8 µM) of 0.708 and a relative viability ([2]; first compound 2.53 µM) of 0.639. It also gave a relative viability ([2]; first compound 8 µM) of 0.626, a relative viability ([3]; first compound 0.08 µM) of 1.04 and a relative viability ([3]; first compound 0.253 µM) of 1.01. The relative viability ([3]; first compound 0.8 µM) was 1.07, the relative viability ([3]; first compound 2.53 µM) was 1.01 and the relative viability ([3]; first compound 8 µM) was 1.01. The relative viability ([4]; first compound 0.08 µM) was 0.76, the relative viability ([4]; first compound 0.253 µM) was 0.762 and the relative viability ([4]; first compound 0.8 µM) was 0.73. For the same cell line, the relative viability ([4]; first compound 2.53 µM) was 0.765 and the relative viability ([4]; first compound 8 µM) was 0.762.
